US7322965B2, “Infection-resistant medical devices” (priority 2002, dated 2008)
Converted amounts (≈) assume the structure as drawn. “Also recorded” adds a separate entry of the source. Like-named read-outs stand apart in the source and are kept apart here. Marks after values point to notes of the source that are not given here.

Assays:
[1] = tested on: S. epidermidis isolates (UC-20207, UC-20208, and RP62A); test: Time course adherence assay, summary over three S. epidermidis isolates; type: cell-based
Procedure: (§1) Drug effects on bacterial adherence were measured 18 hours after treatment initiation using a quantitative spectrophotometric assay.
(§2) Relative inhibition of adherence was expressed by the following equation: (OD of control well−OD of treated well/OD of control well)×100, where OD is the mean optical density of six replicate wells from two separate experiments (three replicates per experiment). Control was defined as infected, drug-free cultures.
(§3) The primary efficacy variable in this study was the measurement of adherent bacteria to polystyrene surfaces after 18 hours to 24 hours of growth. To determine whether statistically significant differences existed between treatments (4×MIC, 2×MIC, MIC, and ½ MIC) compared with the infected-nontreated controls, multiple comparisons according to Dunnett's test (Montgomery, Design and Analysis of Experiments (1991)) were applied for each clinical strain. Differences were considered statistically significant when p<0.05.

S. epidermidis RP62A = test: Determination of minimum inhibitory concentration (microdilution); type: cell-based; settings: Staphylococcus epidermidis, RP62A, 18 h, read-out: MIC (minimum inhibitory concentration)
[2] = tested on: S. aureus and S. epidermidis strains; test: Microtiter-plate adherence assay, summary over all strains evaluated; type: cell-based, staphylococci; settings: concentrations less than the MIC, as low as one-fourth the MIC; five strains
Procedure: (§4) Briefly, the inoculum was established by the direct colony suspension method using the Prompt™ Inoculation System (Becton Dickinson, Sparks, Md.). The bacteria suspension, which was equal to the turbidity of a 0.5 McFarland standard, was diluted in TSB to a concentration of 1×10^6 colony forming units per ml (CFU/mL). One hundred microliters of the cell suspension was added to flat-bottom polystyrene wells (Corning Costar, Corning, N.Y.) containing 100 μl of TSB, with and without drug. The final inoculum concentration per well was approximately 5×10^5 CFU/mL. The plates were incubated at 37° C. under static conditions in air. At 18 hours (h) post-infection, the optical density of bacterial growth was measured at a wavelength of 595 nm in a microtiter plate reader (Vmax; Molecular Devices, Sunnyvale, Calif.). […] Adherent “sessile” cells then were fixed with 3.7% (v/v) formaldehyde/2% (w/v) sodium acetate and stained with 0.1% (w/v) crystal violet. Excess stain was rinsed off with deionized water and the plates were air-dried for 4 h. The optical density of bacterial adherence was determined at a wavelength of 550 nm. Preliminary studies were performed to determine the optimal wavelengths for measuring growth turbidity and stained adherent cells (data not shown). To compensate for background absorbance, optical density readings from wells treated with sterile medium, fixative and stain as described above were averaged and then subtracted from all test and control wells. Relative inhibition of adherence or growth was expressed by the following equation: (OD of control well−OD of treated well/OD of control well)×100, where OD is the mean optical density of six replicate wells from two separate experiments (three replicates per experiment). Control was defined as infected, drug-free cultures.
(§5) The primary efficacy variable in this study was the measurement of adherent bacterial cells to polystyrene after 18 h of growth. To determine whether statistically significant differences existed between treatment groups (MIC, ½ MIC, and ¼ MIC) compared with the infected-nontreated controls, the Kruskal-Wallis one-way analysis of variance (ANOVA) was applied for each clinical strain. Statistical significance was defined as p-values ≦0.05. An asterisk (*) was placed by all test values less than or equal to the specified significance level.

S. epidermidis UC-20208 = test: Microtiter-plate adherence assay on polystyrene; type: cell-based; settings: for Adherence Mean OD550: S. epidermidis UC-20208, 18 h
Procedure: as §4, §5

S. aureus UC-20206 = test: Microtiter-plate adherence assay on polystyrene; type: cell-based; settings: for Adherence Mean OD550: S. aureus UC-20206, 18 h
Procedure: as §4, §5

S. aureus UC-20205 = test: Microtiter-plate adherence assay on polystyrene; type: cell-based; settings: for Adherence Mean OD550: S. aureus UC-20205, 18 h
Procedure: as §4, §5

S. hominis SP-2 = test: Determination of minimum inhibitory concentration (microdilution); type: cell-based; settings: Staphylococcus hominis, SP2, 18 h, read-out: MIC (minimum inhibitory concentration)
S. epidermidis UC-20207 = test: Time course adherence assay (prophylactic and delayed treatment); type: cell-based; settings: for inhibition at 1 µg/mL / inhibition at 2 µg/mL / inhibition at 4 µg/mL / inhibition at 8 µg/mL: Staphylococcus epidermidis, read-out: Percent inhibition of bacterial adherence relative to controls; for Mean OD550: UC-20207
Procedure: as §1, §2, §3

[3] = Staphylococcus epidermidis, UC20208, 18 h, read-out: Adherence % Inhibition
[4] = Staphylococcus aureus, UC20206, 18 h, read-out: Adherence % Inhibition
[5] = Staphylococcus aureus, UC20205, 18 h, read-out: Adherence % Inhibition

In the case of `CN[C@H](CC(C)C)C(=O)N[C@H]1C(=O)N[C@@H](CC(N)=O)C(=O)N[C@H]2C(=O)N[C@H]3C(=O)N[C@H](C(=O)N[C@H](C(=O)O)c4cc(O)cc(O)c4-c4cc3ccc4O)[C@H](O)c3ccc(c(Cl)c3)Oc3cc2cc(c3O[C@@H]2O[C@H](CO)[C@@H](O)[C@H](O)[C@H]2O[C@H]2C[C@](C)(N)[C@H](O)[C@H](C)O2)Oc2ccc(cc2Cl)[C@H]1O` [Vancomycin], the “activity against cell adhesion” value ([1]; subtherapeutic concentrations (one-half MIC)) is reported as “minimal or no activity against cell adhesion”, the anti-adhesion activity ([1]; therapeutic levels, administered 2 hours post-infection, compared with linezolid) is reported as “equally effective” and the anti-adhesion activity ([1]; treatments delayed by 4 to 6 hours) is reported as “only the highest concentrations (>MIC) demonstrated anti-adhesion activity”. For the same molecule, the MIC (S. epidermidis RP62A) was 2 µg/mL (≈ 1.38 µM), the “effect on bacterial adhesion at subinhibitory concentrations” value [2] was “minimal or no activity against bacterial adhesion; also recorded: did not inhibit staphylococcal adherence in four of the five strains assessed” and the “Adherence Mean OD550” value (S. epidermidis UC-20208; drug 0.5 μg/ml) was 2.165 ± 0.150. For the same molecule, the “Adherence Mean OD550” value (S. epidermidis UC-20208; drug 1.0 μg/ml) was 2.716 ± 0.400, the “Adherence Mean OD550” value (S. epidermidis UC-20208; drug 2.0 μg/ml (MIC)) was 0.000 ± 0.001* and the inhibition at 0.5 µg/mL (S. epidermidis UC-20208; [3]) was 0%. The inhibition at 1 µg/mL (S. epidermidis UC-20208; [3]) was 0%, the inhibition at 2 µg/mL (S. epidermidis UC-20208; [3]) was 100% and the “Adherence Mean OD550” value (S. aureus UC-20206; drug 0.25 μg/ml) was 0.192 ± 0.020. The “Adherence Mean OD550” value (S. aureus UC-20206; drug 0.5 μg/ml) was 0.267 ± 0.044, the “Adherence Mean OD550” value (S. aureus UC-20206; drug 1.0 μg/ml) was 0.000 ± 0.003* and the inhibition at 0.25 µg/mL (S. aureus UC-20206; [4]) was 12.5%. The inhibition at 0.5 µg/mL (S. aureus UC-20206; [4]) was 0%, the inhibition at 1 µg/mL (S. aureus UC-20206; [4]) was 9.99% and the “Adherence Mean OD550” value (S. aureus UC-20205; drug 0.25 μg/ml) was 0.730 ± 0.202. For the same molecule, the “Adherence Mean OD550” value (S. aureus UC-20205; drug 0.5 μg/ml) was 0.012 ± 0.013*, the “Adherence Mean OD550” value (S. aureus UC-20205; drug 1.0 μg/ml) was 0.000 ± 0.001* and the inhibition at 0.25 µg/mL (S. aureus UC-20205; [5]) was 0%. The inhibition at 0.5 µg/mL (S. aureus UC-20205; [5]) was 98%, the inhibition at 1 µg/mL (S. aureus UC-20205; [5]) was 100% and the MIC (S. hominis SP-2) was 1 µg/mL (≈ 0.69 µM). It also gave an inhibition at 1 µg/mL (S. epidermidis UC-20207; UC20207, 0 h) of 0%, an inhibition at 2 µg/mL (S. epidermidis UC-20207; UC20207, 0 h) of 99.8% and an inhibition at 4 µg/mL (S. epidermidis UC-20207; UC20207, 0 h) of 99.9%. For the same molecule, the inhibition at 8 µg/mL (S. epidermidis UC-20207; UC20207, 0 h) was 99.9%, the inhibition at 1 µg/mL (S. epidermidis UC-20207; UC20207, 2 h) was 0% and the inhibition at 2 µg/mL (S. epidermidis UC-20207; UC20207, 2 h) was 99.4%. For the same molecule, the inhibition at 4 µg/mL (S. epidermidis UC-20207; UC20207, 2 h) was 99.8%, the inhibition at 8 µg/mL (S. epidermidis UC-20207; UC20207, 2 h) was 99.7% and the inhibition at 1 µg/mL (S. epidermidis UC-20207; UC20207, 4 h) was 0%. It also gave an inhibition at 2 µg/mL (S. epidermidis UC-20207; UC20207, 4 h) of 3.6%, an inhibition at 4 µg/mL (S. epidermidis UC-20207; UC20207, 4 h) of 98.8% and an inhibition at 8 µg/mL (S. epidermidis UC-20207; UC20207, 4 h) of 99%. The inhibition at 1 µg/mL (S. epidermidis UC-20207; UC20207, 6 h) was 0%, the inhibition at 2 µg/mL (S. epidermidis UC-20207; UC20207, 6 h) was 0% and the inhibition at 4 µg/mL (S. epidermidis UC-20207; UC20207, 6 h) was 0%. The inhibition at 8 µg/mL (S. epidermidis UC-20207; UC20207, 6 h) was 88.5%, the “Mean OD550” value (S. epidermidis UC-20207; 1.0 μg/ml, treatment 0 h post-infection) was 2.389 ± 0.175 and the “Mean OD550” value (S. epidermidis UC-20207; 2.0 μg/ml (MIC), treatment 0 h post-infection) was 0.005 ± 0.004. For the same molecule, the “Mean OD550” value (S. epidermidis UC-20207; 2.0 μg/ml (MIC), treatment 2 h post-infection) was 0.014 ± 0.010, the “Mean OD550” value (S. epidermidis UC-20207; 2.0 μg/ml (MIC), treatment 4 h post-infection) was 2.693 ± 0.527 and the “Mean OD550” value (S. epidermidis UC-20207; 4.0 μg/ml, treatment 0 h post-infection) was 0.003 ± 0.002. For the same molecule, the “Mean OD550” value (S. epidermidis UC-20207; 4.0 μg/ml, treatment 2 h post-infection) was 0.006 ± 0.003, the “Mean OD550” value (S. epidermidis UC-20207; 4.0 μg/ml, treatment 4 h post-infection) was 0.033 ± 0.010 and the “Mean OD550” value (S. epidermidis UC-20207; 8.0 μg/ml, treatment 0 h post-infection) was 0.003 ± 0.002. The “Mean OD550” value (S. epidermidis UC-20207; 8.0 μg/ml, treatment 2 h post-infection) was 0.007 ± 0.003, the “Mean OD550” value (S. epidermidis UC-20207; 8.0 μg/ml, treatment 4 h post-infection) was 0.028 ± 0.014 and the “Mean OD550” value (S. epidermidis UC-20207; 8.0 μg/ml, treatment 6 h post-infection) was 0.326 ± 0.046.
